Test results as given in patent US10550105B2 (Ribon Therapeutics Inc., priority 2018, dated 2020).

Each compound was assayed against PARP7 (Homo sapiens (Human), UniProt Q7Z3E1) (assay: Enzymatic assay for inhibition of PARP7: TR-FRET displacement of biotinylated Probe A from the TIPARP active site). Conditions: Table A-1.
Type: binding
Method in brief: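 Percent inhibition derives from the ratio of 665 to 615 nm emission, which reports how much Probe A remains bound to TIPARP. Plates sat 30 min at 25° C before the time-resolved read (320 nm excitation).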

Sequence of PARP7 (Q7Z3E1 whole entry): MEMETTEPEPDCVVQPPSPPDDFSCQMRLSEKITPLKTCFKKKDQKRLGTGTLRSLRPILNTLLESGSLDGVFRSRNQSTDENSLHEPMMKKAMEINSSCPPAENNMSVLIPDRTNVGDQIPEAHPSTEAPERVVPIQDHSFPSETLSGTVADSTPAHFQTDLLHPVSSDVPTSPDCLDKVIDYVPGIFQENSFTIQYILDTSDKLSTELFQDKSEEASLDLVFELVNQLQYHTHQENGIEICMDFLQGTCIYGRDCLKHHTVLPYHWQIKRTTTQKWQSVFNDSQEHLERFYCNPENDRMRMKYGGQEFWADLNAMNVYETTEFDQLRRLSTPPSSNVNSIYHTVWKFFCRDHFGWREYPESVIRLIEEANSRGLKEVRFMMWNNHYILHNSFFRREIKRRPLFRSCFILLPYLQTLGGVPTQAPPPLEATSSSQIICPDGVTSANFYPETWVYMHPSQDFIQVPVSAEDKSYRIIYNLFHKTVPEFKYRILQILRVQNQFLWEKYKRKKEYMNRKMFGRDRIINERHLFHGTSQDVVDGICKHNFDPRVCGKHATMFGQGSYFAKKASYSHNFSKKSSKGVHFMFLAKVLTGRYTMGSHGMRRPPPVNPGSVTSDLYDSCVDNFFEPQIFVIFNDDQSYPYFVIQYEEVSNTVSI

| SMILES | IC50 |
| --- | --- |
| O=C(CCOC[C@H](CCO)Nc1cn[nH]c(=O)c1C(F)(F)F)N1CCN(c2ncc(C(F)(F)F)cn2)CC1 [Example 643, (S)-5-((4-Hydroxy-1-(3-oxo-3-(4-(5-(trifluoromethyl)pyrimidin-2-yl)piperazin-1-yl)propoxy)butan-2-yl)amino)-4-(trifluoromethyl)pyridazin-3(2H)-one] | < 100 nM |
| C[C@@H](COCCC(=O)N1CCC(Oc2ncc(C#N)s2)C1)Nc1cn[nH]c(=O)c1C(F)(F)F (stereo partly drawn) [Example 718, 2-((1-(3-((S)-2-((6-Oxo-5-(trifluoromethyl)-1,6-dihydropyridazin-4-yl)amino)propoxy)propanoyl)pyrrolidin-3-yl)oxy)thiazole-5-carbonitrile] | < 100 nM |
| N#Cc1ccc(N2CCN(C(=O)c3cc(OC[C@@H]4CCCN4c4cn[nH]c(=O)c4C(F)(F)F)ccc3F)CC2)nc1 [Example 67, 6-[4-[(2-fluoro-5-[[(2S)-1-[6-oxo-5-(trifluoromethyl)-1,6-dihydropyridazin-4-yl]pyrrolidin-2-yl]methoxy]phenyl)carbonyl]piperazin-1-yl]pyridine-3-carbonitrile] | < 100 nM |
| C[C@@H](COCCC(=O)N1CC=C(c2ncc(C(F)(F)F)cn2)CC1)Nc1cn[nH]c(=O)c1C(F)(F)F [Example 652, (S)-5-((1-(3-Oxo-3-(4-(5-(trifluoromethyl)pyrimidin-2-yl)-3,6-dihydropyridin-1(2H)-yl)propoxy)propan-2-yl)amino)-4-(trifluoromethyl)pyridazin-3(2H)-one] | < 100 nM |
| CN(C)CCOc1cnc2c(c1)CN(c1cn[nH]c(=O)c1C(F)(F)F)C2 [Example 335, 5-(3-(2-(Dimethylamino)ethoxy)-5,7-dihydro-6H-pyrrolo[3,4-b]pyridin-6-yl)-4-(trifluoromethyl)pyridazin-3(2H)-one] | 100 to 1000 nM |
| CN(C)CCOc1cccc2c1CN(c1cn[nH]c(=O)c1Cl)C2 [Example 166, 4-Chloro-5-(4-(2-(dimethylamino)ethoxy)isoindolin-2-yl)pyridazin-3(2H)-one] | ≥ 1000 nM |
| C[C@@H](COc1cn[nH]c(=O)c1C(F)(F)F)OCCC(=O)N1CCN(c2ncc(C(F)(F)F)cn2)CC1 (single isomer, unassigned) [Example 544 Isomer C] | < 100 nM |
| CC(=O)N1CCN(C(=O)CCOC[C@H]2c3ccccc3CN2c2cn[nH]c(=O)c2C(F)(F)F)CC1 [Example 420, (R)-5-(1-((3-(4-Acetylpiperazin-1-yl)-3-oxopropoxy)methyl)isoindolin-2-yl)-4-(trifluoromethyl)pyridazin-3(2H)-one] | ≥ 1000 nM |
| N#Cc1ccc(N2CCN(C(=O)COCC[C@@H]3CCCN3c3cn[nH]c(=O)c3C(F)(F)F)CC2)nc1 [Example 88, (S)-6-(4-(2-(2-(1-(6-oxo-5-(trifluoromethyl)-1,6-dihydropyridazin-4-yl)pyrrolidin-2-yl)ethoxy)acetyl)piperazin-1-yl)nicotinonitrile] | < 100 nM |
| N#Cc1ccc(N2CCN(C(=O)CCOCC3CCCCN3c3cn[nH]c(=O)c3Br)CC2)nc1 (stereo not drawn) [Example 131, 6-(4-(3-((1-(5-bromo-6-oxo-1,6-dihydropyridazin-4-yl)piperidin-2-yl)methoxy)propanoyl)piperazin-1-yl)nicotinonitrile] | 100 to 1000 nM |
| N#Cc1ccc(N2CCN(C(=O)CCOCCOc3cn[nH]c(=O)c3Br)CC2)nc1 [Example 555, 6-[4-(3-[2-[(5-Bromo-6-oxo-1,6-dihydropyridazin-4-yl)oxy]ethoxy]propanoyl)piperazin-1-yl]pyridine-3-carbonitrile] | < 100 nM |
| N#Cc1c(OCCOCCC(=O)N2CCN(c3ncc(Cl)cn3)CC2)cn[nH]c1=O [Example 552, 5-(2-[3-[4-(5-Chloropyrimidin-2-yl)piperazin-1-yl]-3-oxopropoxy]ethoxy)-3-oxo-2,3-dihydropyridazine-4-carbonitrile] | < 100 nM |
| CC(=O)N1CCC(COc2cc3c(cc2F)CN(c2cn[nH]c(=O)c2C(F)(F)F)C3)CC1 [Example 21, 5-[5-[(1-acetylpiperidin-4-yl)methoxy]-6-fluoro-2,3-dihydro-1H-isoindol-2-yl]-4-(trifluoromethyl)-2,3-dihydropyridazin-3-one] | < 100 nM |
| CC1c2ccccc2CN1c1cn[nH]c(=O)c1Cl (stereo not drawn) [Example 208, 4-Chloro-5-(1-methylisoindolin-2-yl)pyridazin-3(2H)-one] | ≥ 1000 nM |
| N#Cc1ccc(N2CCN(C(=O)C[C@H]3CC[C@H](CNc4cn[nH]c(=O)c4C(F)(F)F)O3)CC2)nc1 [Example 581 Isomer C, 6-(4-[2-[(2R,5R)-5-([[6-oxo-5-(trifluoromethyl)-1,6-dihydropyridazin-4-yl]amino]methyl)oxolan-2-yl]acetyl]piperazin-1-yl)pyridine-3-carbonitrile] | < 100 nM |
| CC(Oc1cccc2c1CN(c1cn[nH]c(=O)c1C(F)(F)F)C2)c1ccncc1 (stereo not drawn) [Example 252, 5-(4-(1-(Pyridin-4-yl)ethoxy)isoindolin-2-yl)-4-(trifluoromethyl)pyridazin-3(2H)-one] | < 100 nM |
| C[C@@H](COCCC(=O)N1CCN(c2ccc(C(F)(F)F)cn2)CC1)Nc1cn[nH]c(=O)c1C(F)(F)F [Example 564, 5-[[(2S)-1-(3-Oxo-3-[4-[5-(trifluoromethyl)pyridin-2-yl]piperazin-1-yl]propoxy)propan-2-yl]amino]-4-(trifluoromethyl)-2,3-dihydropyridazin-3-one] | < 100 nM |
| O=C(CCOC[C@H](CO)Nc1cn[nH]c(=O)c1Br)N1CCN(c2ncc(C(F)(F)F)cn2)CC1 [Example 660, (S)-4-Bromo-5-((1-hydroxy-3-(3-oxo-3-(4-(5-(trifluoromethyl)pyrimidin-2-yl)piperazin-1-yl)propoxy)propan-2-yl)amino)pyridazin-3(2H)-one] | < 100 nM |
| COc1cccc2c1CN(c1cn[nH]c(=O)c1C)C2 [Example 167, 5-(4-Methoxyisoindolin-2-yl)-4-methylpyridazin-3(2H)-one] | 100 to 1000 nM |
| N#Cc1ccc(N2CCN(C(=O)C34C5C6C3C3C4C5C63COC[C@@H]3CCCN3c3cn[nH]c(=O)c3C(F)(F)F)CC2)nc1 (stereo partly drawn) [Example 479, (S)-6-(4-(4-(((1-(6-Oxo-5-(trifluoromethyl)-1,6-dihydropyridazin-4-yl)pyrrolidin-2-yl)methoxy)methyl)cubane-1-carbonyl)piperazin-1-yl)nicotinonitrile] | 100 to 1000 nM |
| O=c1[nH]ncc(N2Cc3cc(OCCO)cc(F)c3C2)c1C(F)(F)F [Example 323, 5-(4-Fluoro-6-(2-hydroxyethoxy)isoindolin-2-yl)-4-(trifluoromethyl)pyridazin-3(2H)-one] | < 100 nM |
| COc1cccc2c1CN(c1cn[nH]c(=O)c1C(F)(F)F)C2 [Example 164, 5-(4-Methoxyisoindolin-2-yl)-4-(trifluoromethyl)pyridazin-3(2H)-one] | < 100 nM |
| COc1cnc2c(c1)CN(c1cn[nH]c(=O)c1C(F)(F)F)C2 [Example 326, 5-(3-Methoxy-5,7-dihydro-6H-pyrrolo[3,4-b]pyridin-6-yl)-4-(trifluoromethyl)pyridazin-3(2H)-one] | < 100 nM |
| COC[C@@H](COCCC(=O)N1CCN(c2ccc(Cl)cn2)CC1)Nc1cn[nH]c(=O)c1C(F)(F)F [Example 593, 5-[[(2S)-1-[3-[4-(5-Chloropyridin-2-yl)piperazin-1-yl]-3-oxopropoxy]-3-methoxypropan-2-yl]amino]-4-(trifluoromethyl)-2,3-dihydropyridazin-3-one] | < 100 nM |
